In patent US20210261636A1, “NEOANTIGENS EXPRESSED IN MULTIPLE MYELOMA AND THEIR USES” (Janssen Biotech, Inc., priority 2020, published 2021):

How the values were obtained:
CD4+ T cells = test: Exogenous autologous healthy donor restimulation assay, TNFα and IFNγ production by CD4+ T cells; type: cell-based, human; parameters: Frequency (TNFα+ IFNγ+ CD4 T cells): unit not given here; details: donor independent, peptide pool 10 μg/mL, healthy donors; for Fold change (CD4+) vs. DMSO: maximum CD4+ T-cell response (TNFα and IFNγ); for Frequency (TNFα+ IFNγ+ CD4 T cells): maximum CD4+ T-cell response
Method in brief: (§1)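 CD1c+ DCs from healthy donor PBMCs pulsed 2 h with 15-mer overlapping neoantigen peptide pools (10 μg/mL), irradiated 50 Gy, then co-cultured 12 days with autologous CD3+ T cells plus IL-15/IL-2. Restimulated day 11 with same pools, overnight with protein inhibitor; intracellular TNFα/IFNγ by flow. Positive: ≥3-fold over DMSO and ≥0.01% double-positive.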

CD8+ T cells = test: Exogenous autologous healthy donor restimulation assay, TNFα and IFNγ production by CD8+ T cells; type: cell-based, human; parameters: Frequency (TNFα+ IFNγ+ CD8 T cells): unit not given here; details: for Fold change (CD8+) vs. DMSO: maximum CD8+ T-cell response (TNFα and IFNγ); for Fold change (CD8+) vs. DMSO / Frequency (TNFα+ IFNγ+ CD8 T cells): donor independent, peptide pool 10 μg/mL, healthy donors; for Frequency (TNFα+ IFNγ+ CD8 T cells): maximum CD8+ T-cell response; for Immunogenic (yes/no): positive if CD8+ and/or CD4+ double positive TNFα/IFNγ frequency >=3-fold over DMSO and at least 0.01%
Method in brief: as §1

| Molecule | Fold change (CD4+) vs. DMSO (CD4+ T cells) | Frequency (TNFα+ IFNγ+ CD4 T cells) (CD4+ T cells) | Fold change (CD8+) vs. DMSO (CD8+ T cells) | Frequency (TNFα+ IFNγ+ CD8 T cells) (CD8+ T cells) | Immunogenic (yes/no) (CD8+ T cells) |
| --- | --- | --- | --- | --- | --- |
| QIRVPSYSDEG [AS114, alternative splicing, CNTN5] | 2.05 | 0.02 | 7.6 | 0.14 | Yes |
| VEDEEKKEAGTHFIHLTGTTVSAGVPEEMPATTLRREVF [AS108, alternative splicing, ACIN1] | 179.31 | 1.06 | 1406.07 | 12.5 | Yes |
| ARWFTREQGSEN [FUS12, gene fusion NUDT12-> LINC02115] | 2.77 | 0.027 | 24.68 | 0.58 | Yes |
| CKVCQNCKNPKMARAS [AS23, alternative splicing, KMT2C] | 18 | 0.063 | 3.05 | 0.065 | Yes |
| ILAQKKKDELSS [AS93, alternative splicing, TJP1] | 9.9 | 0.015 | 1.44 | 0.014 | Yes |
| DMEVFLKEASTNQHNTLIHLTLTFST [AS73, alternative splicing, SMC5] | 72.58 | 0.11 | 3 | 0.02 | Yes |
| ARHLLTLGTCGSTWP [FUS26, gene fusion P2RY6-> ARHGEF17] | 2.46 | 0.026 | 7.07 | 0.1 | Yes |
| RSISLHKSDPSLLSPN [AS25, alternative splicing, TBCEL] | 57.01 | 0.061 | 43.6 | 0.028 | Yes |
| GFFETEMAVPFFSRKIRKVRRAIMKWTFCCYFY [AS118, alternative splicing, IARS] | 7.692 | 0.15 | 106.428 | 1.01 | Yes |
| TSTSPKFPVFIFRLVCWVRTELVLR [AS47, alternative splicing, NRG3] | 1.907 | 0.011 | 53.5 | 0.25 | Yes |
| QILEQPKQVRLKGWDFKC [AS68, alternative splicing, NFKB1] | 21.77 | 0.033 | 4 | 0.022 | Yes |
| RPGVFTDIL [FUS53, gene fusion PTPRG-> C3orf14] | 6.29 | 0.041 | 76.5 | 0.78 | Yes |
| ACGACGAGFFIKQKCIEQRESRSLS [FUS22, gene fusion IGLL5-> COMMD3-BMI1, BMI1] | 0.86 | 0.006 | 89.07 | 0.11 | Yes |
| TQRLPGHKVSNSCMTGLVLTFTKRDPFHKPVTWCGQLADVRQCMFHSIRERAHPLQRALATLNFFFVSFYTALYLTHPLLTLQTWEVVVTVCFSCWELCVPCDVLRRTCRGQR (alternative splicing, BTBD3) TQRLPGHKVSNSCMTGLVLTFTKRDPFHKPVTWCGQLADVRQCMFHSIRERAHPLQRALATLNFFFVSFYTALYLTHPLLTLQTWEVVVTVCFSCWELCVPCDVLRRTCRGQR | 7.26 | 0.025 | 17.3 | 0.77 | Yes |
| PPTAAASQVRSPTTATGTAAAGSLRAQTSSRATTESTRATGHSSAICAIVPSRAPITWRCT (gene fusion FOSB-> KLF2) PPTAAASQVRSPTTATGTAAAGSLRAQTSSRATTESTRATGHSSAICAIVPSRAPITWRCT | 6.84 | 0.002 | 37.46 | 0.056 | Yes |
| RQREVVDLVSPREPSRDRRAGGGDLAARPTGRASVWLLGVSVCTAVCRVSCCAGVSCFLFTGEEGPGYACSESWNSEGRPKWEAIVERTCDMGPYNGMCLQG (alternative splicing, CTHRC1) RQREVVDLVSPREPSRDRRAGGGDLAARPTGRASVWLLGVSVCTAVCRVSCCAGVSCFLFTGEEGPGYACSESWNSEGRPKWEAIVERTCDMGPYNGMCLQG | 57.613 | 0.072 | 2700 | 0.27 | Yes |
